According to patent publication US20070249673A1, “Method for administering tolperisone” (priority 2006, published 2007):
Like-named read-outs stand apart in the source and are kept apart here.

Experiments:
[1] = human, in vivo
Method: (§1) Dosing Regimen: Subjects in each cohort received tolperisone according to the following regimen.
(§2) Blood samples for the measurement of the plasma concentrations of tolperisone and metabolites M1 (4-hydroxymethyltolperisone) and M4 (4-carboxy-tolperisone) were collected at the times shown in Table 8.
(§3) Bioanalytical: Plasma concentrations of tolperisone and metabolites M1 and M4 were measured using a validated LC/MS/MS assay by Pharm-analyt Laboratory, Baden Austria. The limits of quantitation (LOQ) for tolperisone, Mi, and M4 in plasma were 0.2 ng/ML, and 0.01 μg/mL, respectively.
(§4) Pharmacokinetic Analyses: Pharmacokinetic parameters for tolperisone, M1, and M4 were calculated using non-compartmental analysis. Only plasma concentrations greater than or equal to the LOQ for the respective assay were used in the pharmacokinetic analyses. Actual blood sampling times were used in all pharmacokinetic analyses. […] All pharmacokinetic calculations were done using SAS® for Windows® Version 9.1.3.
(§5) The maximum plasma concentration (Cmax) and time to Cmax (Tmax) were taken directly from the data. The elimination rate constant, λz, was calculated as the negative of the slope of the terminal log-linear segment of the plasma concentration-time curve. The range of data to be used for each subject and treatment was determined by visual inspection of a semi-logarithmic plot of concentration versus time. Elimination half-life (t½) was calculated according to the following equation: [formula] Area under the curve to the final sample with a concentration greater than or equal to the LOQ [(AUC(0-t)] was calculated using the linear trapezoidal method and extrapolated to infinity [AUC(inf)] using: [formula] where Ctf is the final concentration≧LOQ.
(§6) The maximum plasma concentration (Cmax) and time to Cmax (Tmax) were taken directly from the data.
(§7) The maximum plasma concentration (Cmax) and time to Cmax (Tmax) were taken directly from the data. The elimination rate constant, λz, and half-life, t½, were calculated as described for the 0800 dose on Day 1 (above). Areas under the curve to the final sample with a concentration greater than or equal to the LOQ [(AUC(O-t)] and over the 6-hour dosing interval [AUC(0-6)] were calculated using the linear trapezoidal method.

clinical = conditions: human, in vivo
Method: as §1, §2, §3, §4, §5, §6, §7

[2] = human, in vivo; remark: listed apart in the source

mean AUC(0-6) under fasted conditions higher than fed ([1]; both): 127% | mean Cmax under fasted conditions higher than fed ([1]; both): 213% | t½ ([1]; both): 1.59 ± 0.63 (10) h | t½ ([1]; female): 1.53 ± 0.08 (3) h | t½ ([1]; male): 1.62 ± 0.77 (7) h | AUC(0-t) (clinical; both, AUC (0-6)): 196 ± 129 ng·h/mL | AUC(0-t) (clinical; both, AUC (0-t)): 117 ± 93 ng·h/mL | AUC(0-inf) (clinical; both, AUC (inf)): 122 ± 97.5 ng·h/mL | Tmax (clinical; both): 0.88 h | half-life (clinical; both, mean elimination half-life): ~1.3 h | half-life (clinical; both, t½): 1.22 ± 0.24 h | AUC(0-t) (clinical; female, AUC(0-6)): 276 ± 151 ng·h/mL | AUC(0-t) (clinical; female, AUC(0-t)): 173 ± 152 ng·h/mL | AUC(0-inf) (clinical; female, AUC(inf)): 181 ± 161 ng·h/mL | Tmax (clinical; female): 1 h | half-life (clinical; female, t½): 1.17 ± 0.25 h | AUC(0-t) (clinical; male, AUC(0-6)): 162 ± 113 ng·h/mL | AUC(0-t) (clinical; male, AUC(0-t)): 93.1 ± 55.2 ng·h/mL | AUC(0-inf) (clinical; male, AUC(inf)): 96.3 ± 55.7 ng·h/mL | Tmax (clinical; male): 0.75 h | half-life (clinical; male, t½): 1.24 ± 0.25 h | AUC0-tlast ([2]; po, 150 mg): 54.0 ± 53.2 ng·h/mL | AUC0-oo, geometric mean for the ratio 150 mg fed/150 mg fasted, point estimate ([2]; male): 1.87 | AUC0-tlast, geometric mean for the ratio 150 mg fed/150 mg fasted, point estimate ([2]; male): 1.92 | Cmax, geometric mean for the ratio 150 mg fed/150 mg fasted, point estimate ([2]; male): 1.18 | AUC0-oo ([2]; male, po, 150 mg): 55.4 ± 53.4 ng·h/mL | Cmax ([2]; male, po, 150 mg): 36.1 ± 38.4 ng/mL | Tmax ([2]; male, po, 150 mg): 0.66 h | t1/2 ([2]; male, po, 150 mg): 2.06 ± 0.43 h
Structure (SMILES): Cc1ccc(C(=O)C(C)CN2CCCCC2)cc1 (centres unmarked) [Tolperisone, 2-methyl-1-(4-methylphenyl)-3-(1-piperidinyl)-1-propanone]
